According to US6218396A, “Substituted pyridino arylpiperazines useful in the treatment of benign prostatic hyperplasia” (Orth-McNeil Pharmaceutical, Inc., priority 1999, dated 2001):

Assays:
α1a-AR = biological target: T1, α1a-AR (Homo sapiens, UniProt P35348); assay: receptor binding assay, [125I]-HEAT, membranes of COS cells expressing α1a-AR; settings: [125I]-HEAT 50 pM, human α1a-AR in COS cell membranes; unit 'nanomolar'
T1 construct: expressed in transfected cells; host or cells: COS cells (pcDNA3, transient DEAE-dextran transfection; membranes)
T1 sequence (P35348 1-466): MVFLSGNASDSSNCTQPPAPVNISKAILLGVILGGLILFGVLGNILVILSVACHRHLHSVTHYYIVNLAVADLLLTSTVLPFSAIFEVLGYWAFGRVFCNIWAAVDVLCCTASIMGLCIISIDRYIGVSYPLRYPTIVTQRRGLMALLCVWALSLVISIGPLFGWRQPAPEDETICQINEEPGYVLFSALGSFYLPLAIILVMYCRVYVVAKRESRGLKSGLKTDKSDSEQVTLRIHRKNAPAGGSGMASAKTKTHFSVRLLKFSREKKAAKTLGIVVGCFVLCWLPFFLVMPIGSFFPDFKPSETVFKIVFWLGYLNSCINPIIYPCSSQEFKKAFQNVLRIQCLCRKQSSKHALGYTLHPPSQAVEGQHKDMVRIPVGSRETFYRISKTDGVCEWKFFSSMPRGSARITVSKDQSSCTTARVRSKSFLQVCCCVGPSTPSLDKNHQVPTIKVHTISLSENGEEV
Source text: (§1) The DNA sequences of the three cloned human α1-AR subtypes have been published. […] We used published DNA sequence information to design primers for use in RT-PCR amplification of each subtype to obtain cloned cDNAs. Human poly A+ RNA was obtained from commercially available sources and included hippocampus and prostate samples, sources which have been cited in the literature. For the primary screen a radio ligand binding assay was used which employed membrane preparations from cells expressing the individual cloned receptor cDNAs. Radiolabeled ligands with binding activity on all three subtypes (non-selective) are commercially available ([125I]-HEAT, [3H]-prazosin).
(§2) Each α1 receptor subtype was cloned from poly A+ RNA by the standard method of reverse transcription-polymerase chain reaction (RT-PCR). The following sources of polyA+ RNA were used for the cloning of the α1 receptor subtypes: α1a -AR, human hippocampus and prostate, α1b -AR, human hippocampus, α1d -AR, human hippocampus. The resulting cDNAs were cloned into the pcDNA3 mammalian expression vector (Invitrogen Corp., San Diego Calif.). Each DNA was sequenced for verification and to detect any possible mutations introduced during the amplification process. Any deviation in sequence from the published consensus for each receptor subtype was corrected by site-directed mutagenesis.
(§3) The three α1-AR subtypes (a, b, d) were transfected into COS cells using a standard DEAE-dextran procedure with a chloroquine shock. In this procedure, each tissue culture dish (100 mm) was inoculated with 3.5×10^6 cells and transfected with 10 μg of DNA. Approximately 72 hours post-transfection, the cells were harvested and COS membranes were prepared. Transfected COS cells from 25 plates (100 mm) were scraped and suspended in 15 mL of TE buffer (50 mM Tris-HCl, 5 mM EDTA, pH7.4). The suspension was disrupted with a homogenizer. It was then centrifuged at 1000×g for 10 minutes at […]. The supernatant was centrifuged at 34,500×g for 20 minutes at 4° C. The pellet was resuspended in 5 mL TNE buffer (50 mM Tris-HCl, 5 mM EDTA, 150 mM NaCl, pH7.4). The resulting membrane preparation was aliquoted and stored at -70° C. The protein concentration was determined following membrane solubilization with TritonX-100.
(§4) The ability of each compound to bind to each of the α1-AR subtypes was assessed in a receptor binding assay. [125I]-HEAT, a non-selective α1-AR ligand, was used as the radiolabeled ligand. Each well of a 96-well plate received: 140 μL TNE, 25 μL [125I]-HEAT diluted in TNE (50,000 cpm; final concentration 50 pM), 10 μL test compound diluted in DMSO (final concentration 1 pM-10 μM), […] COS cell membrane preparation expressing one of the three α1-AR subtypes (0.05-0.2 mg membrane protein). The plate was incubated for 1 hour at room temperature and the reaction mixtures were filtered through a Packard GF/C Unifilter filter plate. The filter plate was dried for 1 hour in a vacuum oven. Scintillation fluid ([…]) was added to each well, and the filter plate was counted in a Packard Topcount scintillation counter. Data was analyzed using GraphPad Prism software.

α1b-AR = biological target: T2, α1b-AR (Homo sapiens, UniProt P35368); assay: receptor binding assay, [125I]-HEAT, membranes of COS cells expressing α1b-AR; settings: [125I]-HEAT 50 pM, human α1b-AR in COS cell membranes; unit 'nanomolar'
T2 construct: expressed in transfected cells; host or cells: COS cells (pcDNA3, transient DEAE-dextran transfection; membranes)
T2 sequence (P35368 1-520): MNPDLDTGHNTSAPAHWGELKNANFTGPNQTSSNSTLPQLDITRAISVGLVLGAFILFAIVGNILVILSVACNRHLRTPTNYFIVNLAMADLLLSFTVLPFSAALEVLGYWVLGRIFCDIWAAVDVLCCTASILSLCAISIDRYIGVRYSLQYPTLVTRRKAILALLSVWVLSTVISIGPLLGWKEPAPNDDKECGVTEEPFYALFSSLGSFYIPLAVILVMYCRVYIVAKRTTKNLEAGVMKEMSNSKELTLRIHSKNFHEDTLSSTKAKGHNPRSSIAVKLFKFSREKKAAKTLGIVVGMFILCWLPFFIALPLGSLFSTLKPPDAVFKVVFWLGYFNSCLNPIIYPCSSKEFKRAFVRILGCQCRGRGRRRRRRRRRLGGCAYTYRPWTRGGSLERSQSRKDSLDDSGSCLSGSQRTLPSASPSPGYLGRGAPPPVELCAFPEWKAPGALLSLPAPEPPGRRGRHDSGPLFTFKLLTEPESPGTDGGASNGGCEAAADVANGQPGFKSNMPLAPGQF
Source text: as §1, §2, §3, §4

α1d-AR = biological target: T3, α1d-AR (Homo sapiens, UniProt P25100); assay: receptor binding assay, [125I]-HEAT, membranes of COS cells expressing α1d-AR; settings: [125I]-HEAT 50 pM, human α1d-AR in COS cell membranes; unit 'nanomolar'
T3 construct: expressed in transfected cells; host or cells: COS cells (pcDNA3, transient DEAE-dextran transfection; membranes)
T3 sequence (P25100 1-572): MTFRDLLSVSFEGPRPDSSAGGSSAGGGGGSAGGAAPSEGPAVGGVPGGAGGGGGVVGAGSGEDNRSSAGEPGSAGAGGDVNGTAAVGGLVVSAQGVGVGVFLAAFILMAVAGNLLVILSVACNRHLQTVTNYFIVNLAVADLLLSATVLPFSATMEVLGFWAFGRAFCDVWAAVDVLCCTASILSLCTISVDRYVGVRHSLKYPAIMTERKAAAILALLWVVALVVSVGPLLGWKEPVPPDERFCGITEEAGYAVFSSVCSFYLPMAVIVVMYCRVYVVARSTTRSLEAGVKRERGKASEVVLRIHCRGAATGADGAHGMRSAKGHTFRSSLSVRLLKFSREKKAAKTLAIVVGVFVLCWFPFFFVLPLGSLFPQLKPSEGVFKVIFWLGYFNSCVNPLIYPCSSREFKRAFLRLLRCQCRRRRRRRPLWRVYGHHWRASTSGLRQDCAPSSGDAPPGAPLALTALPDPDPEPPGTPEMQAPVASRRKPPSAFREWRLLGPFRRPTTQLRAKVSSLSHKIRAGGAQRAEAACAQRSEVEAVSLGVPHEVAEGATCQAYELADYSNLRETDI
Source text: as §1, §2, §3, §4

5α-reductase = settings: cited from earlier work
symptomatic BPH = settings: human, in vivo; cited from earlier work

| IC50 (α1a-AR) | IC50 (α1b-AR) | IC50 (α1d-AR) | Structure (SMILES) | inhibition of 5α-reductase (in words) (5α-reductase) | effectiveness in treating symptomatic BPH (in words) (symptomatic BPH) | serum and tissue concentrations of dihydrotestosterone (in words) (symptomatic BPH) | time for effects to become evident (symptomatic BPH) |
| --- | --- | --- | --- | --- | --- | --- | --- |
| 2.4 nM | 1360 nM | 21 nM | COC(CNC(=O)c1cccnc1Oc1ccccc1)CN1CCN(c2ccccc2OC(C)C)CC1 (stereo not shown) [Compound 16] | – | – | – | – |
| 10.2 nM | 889 nM | 314 nM | CC(C)Oc1ccccc1N1CCN(C[C@H](O)CNC(=O)c2cccnc2Oc2ccccc2)CC1 [Compound 35] | – | – | – | – |
| 0.51 nM | 290 nM | 50 nM | Cc1ccc(Oc2ncccc2C(=O)NC[C@H](O)CN2CCN(c3ccccc3OC(C)C)CC2)cc1 [Compound 18] | – | – | – | – |
| 2 nM | 2250 nM | 56 nM | CC(C)Oc1ccccc1N1CCN(CC(O)CNC(=O)c2cccnc2Oc2ccc(Cl)c(Cl)c2)CC1 (stereo not shown) [Compound 30] | – | – | – | – |
| 0.27 nM | > 2000 nM | 43 nM | Cc1ccc(Oc2ncccc2C(=O)NCCCN2CCN(c3ccccc3OC(C)C)CC2)cc1 [Compound 29] | – | – | – | – |
| 2 nM | 1220 nM | 70 nM | CC(C)Oc1ccccc1N1CCN(CC(O)CNC(=O)c2cccnc2Sc2ccccc2)CC1 (stereo not shown) [Compound 43] | – | – | – | – |
| 1 nM | 838 nM | 74 nM | CC(C)Oc1ccccc1N1CCN(CC(O)CNC(=O)c2cccnc2Oc2ccc(Cl)cc2)CC1 (stereo not shown) [Compound 42] | – | – | – | – |
| 25 nM | 361 nM | 969 nM | Cc1ccc(Oc2ncccc2C(=O)NC[C@@H](O)CN2CCN(c3ccccc3OC(C)C)CC2)cc1 [Compound 28] | – | – | – | – |
| 0.86 nM | 791 nM | 57 nM | CC(C)Oc1ccccc1N1CCN(C[C@@H](O)CNC(=O)c2cccnc2Oc2ccc(Cl)cc2)CC1 [Compound 27] | – | – | – | – |
| 2 nM | 972 nM | 56 nM | CC(C)Oc1ccccc1N1CCN(CC(O)CNC(=O)c2cccnc2Oc2cccc(N(C)C)c2)CC1 (stereo not shown) [Compound 38] | – | – | – | – |
| 63 nM | 887 nM | 546 nM | CC(C)Oc1ccccc1N1CCN(CC(=O)CNC(=O)c2cccnc2Oc2ccccc2)CC1 [Compound 17] | – | – | – | – |
| 1.7 nM | 580 nM | 2.2 nM | COc1ccccc1Oc1ncccc1C(=O)NCC(O)CN1CCN(c2ccccc2OC(C)C)CC1 (stereo not shown) [Compound 40] | – | – | – | – |
| 1.1 nM | 730 nM | 1.7 nM | Cc1ccccc1Oc1ncccc1C(=O)NCC(O)CN1CCN(c2ccccc2OC(C)C)CC1 (stereo not shown) [Compound 39] | – | – | – | – |
| 0.64 nM | 151 nM | 40 nM | CC(C)Oc1ccccc1N1CCN(CCCNC(=O)c2cccnc2Oc2ccccc2)CC1 [Compound 5] | – | – | – | – |
| 1.5 nM | 1180 nM | 148 nM | CC(C)Oc1ccccc1N1CCN(CC(O)CNC(=O)c2cccnc2Oc2ccc(F)cc2)CC1 (stereo not shown) [Compound 36] | – | – | – | – |
| 0.76 nM | 668 nM | 81 nM | CC(C)Oc1ccccc1N1CCN(C[C@@H](O)CNC(=O)c2cccnc2Oc2ccccc2)CC1 [Compound 8] | – | – | – | – |
| 2.6 nM | 806 nM | 299 nM | CC(C)Oc1ccccc1N1CCN(CC(O)CNC(=O)c2cccnc2Sc2ccc(Cl)cc2)CC1 (stereo not shown) [Compound 12] | – | – | – | – |
| 1.5 nM | 909 nM | 211 nM | CC(C)Oc1ccccc1N1CCN(CC(O)CNC(=O)c2cccnc2Oc2ccccc2)CC1 (stereo not shown) [Compound 3] | – | – | – | – |
| 25 nM | 736 nM | 25 nM | CC(C)Oc1ccccc1N1CCN(CC(O)CNC(=O)c2cccnc2Nc2ccccc2)CC1 (stereo not shown) [Compound 31] | – | – | – | – |
| 0.91 nM | 952 nM | 180 nM | CC(C)Oc1ccccc1N1CCN(CC(O)CNC(=O)c2cccnc2Oc2cccc(Cl)c2)CC1 (stereo not shown) [Compound 37] | – | – | – | – |
| 9.1 nM | 132 nM | 206 nM | CCOc1ccccc1N1CCN(CC(O)CNC(=O)c2cccnc2Oc2ccccc2)CC1 (stereo not shown) [Compound 34] | – | – | – | – |
| – | – | – | CC(C)(C)NC(=O)[C@H]1CC[C@H]2[C@@H]3CC[C@H]4NC(=O)C=C[C@]4(C)[C@H]3CC[C@]12C [finasteride] | potent 5α-reductase inhibitor | only moderately effective | marked decrease | 6-12 months |
| 3.3 nM | > 2000 nM | 78 nM | CC(C)Oc1ccccc1N1CCN(CC(O)CNC(=O)c2cccnc2Oc2ccc(C(C)(C)C)cc2)CC1 (stereo not shown) [Compound 33] | – | – | – | – |
| 0.52 nM | 928 nM | 21 nM | Cc1ccc(Oc2ncccc2C(=O)NCC(O)CN2CCN(c3ccccc3OC(C)C)CC2)cc1 (stereo not shown) [Compound 41] | – | – | – | – |
| 25 nM | 1020 nM | 79 nM | CC(C)Oc1ccccc1N1CCN(CC(O)CNC(=O)c2cccnc2Nc2cccc(C(F)(F)F)c2)CC1 (stereo not shown) [Compound 11] | – | – | – | – |
| 2.4 nM | 1910 nM | 131 nM | COc1ccc(Oc2ncccc2C(=O)NCC(O)CN2CCN(c3ccccc3OC(C)C)CC2)cc1 (stereo not shown) [Compound 10] | – | – | – | – |
| 3.5 nM | > 2000 nM | 191 nM | COc1ncccc1C(=O)NCC(O)CN1CCN(c2ccccc2OC(C)C)CC1 (stereo not shown) [Compound 13] | – | – | – | – |
| 30 nM | 1570 nM | 147 nM | COc1ccccc1N1CCN(CC(O)CNC(=O)c2cccnc2Oc2ccccc2)CC1 (stereo not shown) [Compound 32] | – | – | – | – |
